According to US6608069B1, “Phenyl xanthine derivatives” (SmithKline Beecham Corporation, priority 1998, dated 2003):

System: not given
Assay: not given
Settings: not given

Row | SMILES | melting point [°C]
1 | CCCn1c(=O)c2nc(-c3cccc(/C=C/C(=O)O)c3)[nH]c2n(CCC)c1=O (hydrate or solvate) [Example 26, (E)-3-[1,3-bis(propyl)-1,2,3,6-tetrahydro-2,6-dioxo-9H-purin-8-yl]cinnamic Acid] | > 350
2 | O=C(O)/C=C/c1ccc(-c2nc3c(=O)n(Cc4ccccc4F)c(=O)n(Cc4ccccc4F)c3[nH]2)cc1 [Example 21, (E)-4-(1,3-bis(2-fluorobenzyl)-1,2,3,6-tetrahydro-2,6-dioxo-9H-purin-8-yl)cinnamic Acid] | > 350
3 | CC(C)Cn1c(=O)c2nc(-c3ccc(/C=C/C(=O)O)cc3)[nH]c2n(CC(C)C)c1=O [Example 10, (E)-4-(1,3-bis(2-methylpropyl)-1,2,3,6-tetrahydro-2,6-dioxo-9H-purin-8-yl)cinnamic Acid] | > 300
4 | O=C(O)/C=C/c1ccc(-c2nc3c(=O)n(Cc4ccccc4)c(=O)n(Cc4ccccc4)c3[nH]2)cc1 [Example 2, (E)-4-(1,3-bis(benzyl)-1,2,3,6-tetrahydro-2,6-dioxo-9H-purin-8-yl)cinnamic Acid] | > 300
5 | O=C(O)/C=C/c1ccc(-c2nc3c(=O)n(Cc4ccccc4)c(=S)n(Cc4ccccc4)c3[nH]2)cc1 [Example 17, (E)-4-(1,3-bis(benzyl)-1,2,3,6-tetrahydro-2-thioxo-6-oxo-9H-purin-8-yl)cinnamic Acid] | > 350
6 | O=C(O)/C=C/c1ccc(-c2nc3c(=O)n(Cc4ccc(F)cc4)c(=O)n(Cc4ccc(F)cc4)c3[nH]2)cc1 (hydrate or solvate) [Example 25, (E)-4-(1,3-bis(4-fluorobenzyl)-1,2,3,6-tetrahydro-2,6-dioxo-9H-purin-8-yl)cinnamic Acid] | > 300
7 | O=C(O)/C=C/c1ccc(-c2nc3c(=O)n(Cc4cccc(F)c4)c(=O)n(Cc4cccc(F)c4)c3[nH]2)cc1 [Example 20, (E)-4-(1,3-bis(3-fluorobenzyl)-1,2,3,6-tetrahydro-2,6-dioxo-9H-purin-8-yl)cinnamic Acid] | > 300
8 | CCCn1c(=O)c2nc(-c3ccc(/C=C/C(=O)O)cc3)[nH]c2n(CCC)c1=O [Example 4, (E)-4-(1,3-bis(propyl)-1,2,3,6-tetrahydro-2,6-dioxo-9H-purin-8-yl)cinnamic Acid] | > 300
9 | O=C(O)/C=C/c1ccc(-c2nc3c(=O)n(CCC4CCCCC4)c(=O)n(CCC4CCCCC4)c3[nH]2)cc1 [Example 8, (E)-4-(1,3-bis(2-cyclohexylethyl)-1,2,3,6-tetrahydro-2,6-dioxo-9H-purin-8-yl)cinnamic Acid] | > 250
10 | O=C(O)/C=C/c1ccc(-c2nc3c(=O)n(CC4CCCCCC4)c(=O)n(CC4CCCCCC4)c3[nH]2)cc1 (hydrate or solvate) [Example 7, (E)-4-(1,3-bis(cycloheptylmethyl)-1,2,3,6-tetrahydro-2,6-dioxo-9H-purin-8-yl)cinnamic Acid] | > 250
11 | O=C(O)/C=C/c1cccc(-c2nc3c(=O)n(CC4CCCCC4)c(=O)n(CC4CCCCC4)c3[nH]2)c1 (hydrate or solvate) [Example 31, (E)-3-[1,3-Bis(cyclohexylmethyl)-1,2,3,6-tetrahydro-2,6-dioxo-9H-purin-8-yl]cinnamic Acid] | > 350
12 | O=C(O)/C=C/c1ccc(-c2nc3c(=O)n(CC4CC4)c(=O)n(CC4CC4)c3[nH]2)cc1 [Example 5, (E)-4-(1,3-bis(cyclopropylmethyl)-1,2,3,6-tetrahydro-2,6-dioxo-9H-purin-8-yl)cinnamic Acid] | > 250
13 | O=C(O)/C=C/c1cccc(-c2nc3c(=O)n(Cc4ccccc4)c(=O)n(Cc4ccccc4)c3[nH]2)c1 (hydrate or solvate) [Example 13, (E)-3-(1,3-bis(benzyl)-1,2,3,6-tetrahydro-2,6-dioxo-9H-purin-8-yl)cinnamic Acid] | > 350
14 | O=C(O)/C=C/c1ccc(-c2nc3c(=O)n(CC4CCCC4)c(=O)n(CC4CCCC4)c3[nH]2)cc1 [Example 3, (E)-4-(1,3-bis(cyclopentylmethyl)-1,2,3,6-tetrahydro-2,6-dioxo-9H-purin-8-yl)cinnamic Acid] | > 300
15 | O=C(O)/C=C/c1ccc(-c2nc3c(=O)n(-c4ccccc4)c(=O)n(-c4ccccc4)c3[nH]2)cc1 [Example 9, (E)-4-(1,3-bis(phenyl)-1,2,3,6-tetrahydro-2,6-dioxo-9H-purin-8-yl)cinnamic Acid] | > 375
16 | O=C(O)/C=C/c1ccc(-c2nc3c(=O)n(CC4CC5CCC4C5)c(=O)n(CC4CC5CCC4C5)c3[nH]2)cc1 (stereo not drawn) [Example 12, (E)-4-(1,3-bis(bicyclo(2.2.1)hept-2-ylmethyl)-1,2,3,6-tetrahydro-2,6-dioxo-9H-purin-8-yl)cinnamic Acid] | > 250
17 | O=C(O)/C=C/c1ccc(-c2nc3c(=O)n(CC4CCC4)c(=O)n(CC4CCC4)c3[nH]2)cc1 (hydrate or solvate) [Example 27, (E)-4-(1,3-bis(cyclobutylmethyl)-1,2,3,6-tetrahydro-2,6-dioxo-9H-purin-8-yl)cinnamic Acid] | > 300
18 | O=C(O)/C=C/c1ccc(-c2nc3c(=O)n(CCc4ccccc4)c(=O)n(CCc4ccccc4)c3[nH]2)cc1 [Example 22, (E)-4-(1,3-bis(2-phenylethyl)-1,2,3,6-tetrahydro-2,6-dioxo-9H-purin-8-yl)cinnamic Acid] | > 350
19 | O=C(O)/C=C/c1ccc(-c2nc3c(=O)n(Cc4cccnc4)c(=O)n(Cc4cccnc4)c3[nH]2)cc1 (hydrate or solvate) [Example 30, (E)-4-(1,3-Bis(3-pyridinylmethyl)-1,2,3,6-tetrahydro-2,6-dioxo-9H-purin-8-yl)cinnamic Acid] | > 300

System: cytokine-stimulated human umbilical vein endothelial cells
Assay: Cell Adhesion Assay: adherence of fluorescently-labelled leukocytes to endothelial cell monolayers
Type: cell-based
Settings: Homo sapiens; inhibition of cytokine-stimulated adhesion minus basal adhesion; calcein-AM labelled leukocytes on HUVEC monolayers
How it was run: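 HUVEC monolayers were stimulated with cytokine, and adhesion of calcein-AM-labelled leukocytes was quantified by fluorescence. Inhibition was calculated on cytokine-stimulated adhesion after subtracting basal adhesion of unstimulated cells.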

Row | SMILES | IC50 [nM]
20 | COCCOCCOCCOCCOCCOCCOCCOCCOCCOCc1cccc(-c2nc3c([nH]2)c(=O)n(CC2CCCCC2)c(=O)n3CC2CCCCC2)c1 [Example 110, 1,3-Bis(cyclohexylmethyl)-8-[3-(2,5,8,11,14,17,20,23,26,29-decaoxatriacont-1-yl)phenyl]-3,7-dihydro-1H-purine-2,6-dione] | 29 ± 11

Same assay, conditions: inhibition of cytokine-stimulated adhesion minus basal adhesion; calcein-AM labelled leukocytes on HUVEC monolayers

Row | SMILES | IC50 [nM]
21 | COCCOCCOCCOCCOCCOCCOCCOCCOCCOC(=O)/C=C/c1ccc(-c2nc3c(=O)n(CC4CC4)c(=O)n(CC4CC4)c3[nH]2)cc1 [Example 38, (E)-4-(1,3-bis(cyclopropylmethyl)-1,2,3,6-tetrahydro-2,6-dioxo-9H-purin-8-yl)cinnamic Acid Nonaethylene Glycol Methyl Ether Ester] | 150 ± 83
22 | COCCOCCOCCOCCOCCOCCOCCOCCOCCN(C)C(=O)c1ccc(-c2nc3c(=O)n(CC4CCCCC4)c(=O)n(CC4CCCCC4)c3[nH]2)cc1 [Example 76, 4-(1,3-Bis(cyclohexylmethyl)-1,2,3,6-tetrahydro-2,6-dioxo-9H-purin-8-yl) benzoic Acid-N-methyl-Nonaethylene Glycol Methyl Ether Amide] | 350 ± 130
23 | COCCOCCOCCOCCOCCOCCOCCNCc1ccc(-c2nc3c(=O)n(CC4CCCCC4)c(=O)n(CC4CCCCC4)c3[nH]2)cc1 [Example 106, 4-[1,3-Bis(cyclohexylmethyl)-1,2.3,6-tetrahydro-2,6-dioxo-9H-purin-8-yl]benzylamine N-Heptaethylene Glycol Methyl Ether] | 110 ± 56
24 | COCCOCCOCCOC(=O)/C=C/c1ccc(-c2nc3c(c(=O)n(CC4CCCCC4)c(=O)n3CC3CCCCC3)n2CCOCCOCCOC)cc1 [Example 97] | > 1000
